Assay results: PMC7734625, “Stabilization Strategies for Linear Minigastrin Analogues: Further Improvements via the Inclusion of Proline into the Peptide Sequence” (Journal of Medicinal Chemistry, 2020)
Read-outs that look alike come from different tables or passages of the source. Non-standard residues stand in square brackets, D forms with d. Residues, ends and D or L forms follow the SMILES beside them. *: point of attachment. DOTA = O=C(O)CN1CCN(CC(=O)O)CCN(CC(=O)*)CCN(CC(=O)O)CC1; 1Nal = N[C@@H](Cc1cccc2ccccc12)C(=O)O; NMeNle = CCCC[C@H](NC)C(=O)O

How the values were obtained:
rat CCK2R = molecular target: T1, rat CCK2R (Rattus norvegicus, UniProt P30553); assay: calcium mobilization assay on AR42J cells; assay type: cell-based; details: mean ± SEM
T1 construct: physiologically expressing the rat CCK2R; host or cells: AR42J rat pancreatic tumor cells
T1 sequence (P30553 1-452): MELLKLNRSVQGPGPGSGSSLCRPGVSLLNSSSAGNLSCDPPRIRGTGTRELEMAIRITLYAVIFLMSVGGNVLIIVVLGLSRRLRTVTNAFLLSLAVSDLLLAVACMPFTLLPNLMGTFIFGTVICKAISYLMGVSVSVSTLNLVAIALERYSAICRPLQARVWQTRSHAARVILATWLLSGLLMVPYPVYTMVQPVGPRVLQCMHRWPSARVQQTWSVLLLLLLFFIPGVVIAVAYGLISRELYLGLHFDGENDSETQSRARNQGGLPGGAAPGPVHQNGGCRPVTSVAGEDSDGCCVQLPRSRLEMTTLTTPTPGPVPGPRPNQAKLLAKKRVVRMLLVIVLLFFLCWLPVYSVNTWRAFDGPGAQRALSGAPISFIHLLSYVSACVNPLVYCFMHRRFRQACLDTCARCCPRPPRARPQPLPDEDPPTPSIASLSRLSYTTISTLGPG
Procedure: (§2) For calcium mobilization assays evaluating receptor activation, A431-CCK2R cells stably transfected with human CCK2R and AR42J cells expressing rat CCK2R were seeded in flat clear bottom black 96-well plates (Corning, Bagneaux-sur-Loing, France), previously coated with poly-D-ornithine (100 μg/mL, 1 h, 37 °C), at densities of 60 000 and 120 000 cells/well, respectively. After 24 h in culture in a 5% CO2 atmosphere, the cells were rinsed twice with modified HBSS buffer (20 mM HEPES, 0.5 mM MgCl2, 2.6 mM CaCl2, 7.7 mM Na2CO3, 1.4 mM MgSO4, 5.3 mM KCl, 138 mM NaCl, 0.1% BSA, 5.5 mM glucose, 2.5 mM probenecid, pH 7.4) (Sigma-Aldrich, Saint-Quentin-Fallavier, France) and loaded (40 min at 37 °C) with the calcium-sensitive dye Fluo-4 AM (ThermoFisher Scientific, Montigny-Le-Bretonneux, France) containing pluronic acid (20% in dimethyl sulfoxide (DMSO)). […] Briefly, after 18 s recording in basal conditions, 50 μL of graded concentrations of the investigated peptides was added to the incubation medium with a built-in eight-channel pipettor to assess activity. […] EC50 values were calculated with the Prism 4.0 software using a logistic equation. Results were expressed as mean ± standard error of the mean (SEM) for at least three independent experiments in triplicate.

human CCK2R [1] = molecular target: T2, human CCK2R (Homo sapiens, UniProt P32239); assay: competitive binding against [125I][3-iodo-Tyr12,Leu15]gastrin-I on A431-CCK2R cells; details: unlabeled peptide, three independent assays, read-out: apparent IC50
T2 construct: expressed in transfected cells; host or cells: A431 human epidermoid carcinoma cells, stably transfected (pCR3.1), provided by Dr. Luigi Aloj
T2 sequence (P32239 1-447): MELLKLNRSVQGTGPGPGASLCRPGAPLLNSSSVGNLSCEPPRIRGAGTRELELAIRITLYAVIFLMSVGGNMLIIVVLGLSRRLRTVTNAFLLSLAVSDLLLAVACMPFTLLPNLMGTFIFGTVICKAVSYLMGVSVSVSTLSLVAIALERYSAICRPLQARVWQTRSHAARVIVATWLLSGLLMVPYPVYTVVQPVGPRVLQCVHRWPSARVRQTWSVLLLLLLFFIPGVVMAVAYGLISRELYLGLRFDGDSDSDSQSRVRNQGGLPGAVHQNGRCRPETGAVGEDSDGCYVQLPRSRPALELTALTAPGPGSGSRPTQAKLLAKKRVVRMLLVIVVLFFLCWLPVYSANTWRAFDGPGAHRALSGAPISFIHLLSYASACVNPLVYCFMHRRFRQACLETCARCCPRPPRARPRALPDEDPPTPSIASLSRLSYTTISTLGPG
Procedure: Binding assays were carried in 96-well filter plates (MultiScreenHTS-FB, Merck Group, Darmstadt, Germany) pretreated with 10 mM TRIS/139 mM NaCl buffer, pH 7.4 (TRIS-buffer) (2 × 250 μL) before 400 000 A431-CCK2R cells per well were added in 35 mM HEPES buffer, pH 7.4, containing 10 mM MgCl2, 14 μM bacitracin, and 0.5% bovine serum albumin (BSA).[46] Competition assays were performed three times in triplicate using increasing concentrations of competitor (0.003–1000 nM) and a constant amount of radioligand (∼40 000 cpm). After 1 h of incubation at room temperature (RT), the medium was removed and the filters were rapidly rinsed with ice-cold TRIS-buffer (2 × 200 μL), removed and counted in a γ-counter. Half-maximal inhibitory concentration (IC50) values were calculated following nonlinear regression with Origin software (MicroCal Origin 6.1, Northampton, MA). Even though incubation was performed in a hypoosmotic solution disturbing the integrity of the cell membrane, we cannot totally exclude that a limited extent of internalization affecting the binding equilibrium occurred. Therefore, the binding affinity measurements obtained from these studies are presented as “apparent IC50” rather than IC50.

human CCK2R [2] = molecular target: T2, human CCK2R; assay: calcium mobilization assay on A431-CCK2R cells; assay type: cell-based; details: mean ± SEM
Procedure: as §2

[3] = log D, octanol/PBS distribution; assay type: physicochemical; details: 111In-labeled peptide
human CCK2R [4] = molecular target: T2, human CCK2R; details: A431-CCK2R cells, previous assays; cited from earlier work
[5] = stability in rat kidney homogenate; assay type: in vitro ADME; details: 120 min incubation, 37 °C
Procedure: (§1) In vitro stability studies characterizing the complex stability as well as the metabolic stability of the radiolabeled peptide analogues were carried out in PBS, fresh human serum, and rat liver and rat kidney homogenates. Organ homogenates were prepared from freshly dissected organs homogenized (IKA-Werke, Staufen, Germany) for 1 min at room temperature (RT) in a 20 mM 4-(2-hydroxyethyl)-1-piperazineethanesulfonic acid (HEPES) buffer at pH 7.3 (30% w/v). A fraction of 0.1 mL of radiolabeled peptide diluted in PBS/HEPES was added to 0.9 mL of medium reaching a final concentration of ∼500 pmol/mL and incubated at 37 °C for up to 120 min in rat organ homogenates (n = 2) and up to 24 h in human serum or PBS (n = 1). At each time point, 100 μL of sample was taken treated with 150 μL of ACN to precipitate proteins centrifuged (2000g, 2 min), diluted with water (1:1), and a fraction of 100 μL was injected to the analytical HPLC system. For serum and tissue homogenates, only the soluble phase extracted after centrifugation was analyzed, whereas the radioactivity lost in the pellet was not considered.

[6] = in vivo stability studies in BALB/c mice; details: i.v.
Procedure: Metabolic studies evaluating the stability of the radioligands were carried out in 7- to 8-week-old female BALB/c mice. With the ^111In-labeled peptide derivatives, the studies were performed for the time point of 10 min p.i. (n = 2). With the ^177Lu-labeled peptide derivatives, additional studies were also carried out for the time point of 30 min and 60 min p.i. (n = 1 for each time point). To allow monitoring of the metabolites by analytical HPLC, the mice were injected with a higher amount of radioactivity (6–9 MBq indium-111, 30–45 MBq lutetium-177) corresponding to ∼1 nmol total peptide intravenously through a lateral tail vein. At different time points, the mice were euthanized by cervical dislocation and urine and a blood sample was collected. Liver and kidneys were excised and homogenized in 20 mM HEPES buffer pH 7.3. The amount of intact radiopeptide and the formation of metabolites was analyzed by analytical HPLC. Prior to injection into the HPLC system, all samples were treated as described for human serum and rat organ homogenate samples.

[7] = test system: A431-CCK2R/A431-mock xenografts; assay: biodistribution in A431-CCK2R/A431-mock xenografted BALB/c nude mice; assay type: in vivo
Procedure: Biodistribution studies evaluating the tumor uptake of the radiolabeled peptides were performed in 7- to 9-week-old female athymic BALB/c nude mice (Charles River, Sulzfeld, Germany). For the induction of tumor xenografts, 150 μL of DMEM containing 2 × 10^6 A431-CCK2R and A431-mock cells were injected subcutaneously in the right and left flank of each mouse, respectively. And 10–14 days after injection, tumors reached a medium weight of ∼0.25 g. The mice were divided into groups of four and injected intravenously via a lateral tail vein with 0.2 MBq of ^111In-labeled compound (0.02 nmol) and 0.7 and 1.5 MBq of the ^177Lu-labeled compound (0.02 and 0.15 nmol). At 4 and 12 h p.i., the mice were sacrificed and the tumors and other tissues (blood, lung, heart, muscle, spleen, intestine, liver, kidneys, stomach, and pancreas) were removed, weighed, and their radioactivity measured in the γ counter together with the rest of the body. Initial biodistribution studies were performed with the three ^177Lu-labeled CCK2R-targeting ligands at an injected peptide amount of 20 pmol for the time point of 4 h p.i. From these studies, two peptide analogues were selected to further characterize the biodistribution profile also at a later time point of 12 h p.i. and at a higher injected peptide amount of 150 pmol. Additional animal studies were performed for the ^111In-labeled conjugates. Percentage of injected activity per gram tissue (%IA/g), tumor-to-organ activity ratios, as well as whole body activity were calculated for each sample and statistical analysis using independent two-population t-test (significance level p < 0.05) was performed using Origin software. For the comparison of more than two groups, data were analyzed using one-way analysis of variance (ANOVA) Holm–Bonferroni-adjusted post hoc analysis (significance level p < 0.05) using Microsoft Excel 2010 software (Microsoft Excel 2010, Microsoft Corporation, WA).

[8] = assay type: in vitro ADME; details: 120 min, pH 7.3
Procedure: as §1

Row | EC50 (rat CCK2R) [nM] | IC50 (human CCK2R [1]) [nM] | EC50 (human CCK2R [2]) [nM] | logD [3] | intact radiopeptide in rat kidney homogenate [5] [%] | intact radiopeptide in rat liver homogenate [8] | Compound | further results
1 | 1.27 ± 0.72 | 1.3 ± 0.8 | 12.4 ± 3.83 | -2.05 ± 0.08 |  |  | CCCC[C@@H](C(=O)N[C@@H](CC(=O)O)C(=O)N[C@@H](Cc1cccc2ccccc12)C(N)=O)N(C)C(=O)[C@H](Cc1c[nH]c2ccccc12)NC(=O)[C@@H]1CCCN1C(=O)[C@H](Cc1ccc(O)cc1)NC(=O)[C@H](C)NC(=O)[C@@H](CCC(=O)O)NC(=O)CN1CCN(CC(=O)O)CCN(CC(=O)O)CCN(CC(=O)O)CC1 [compound 3] ({DOTA}-[dE]AYPW[NMeNle]D[1Nal]-NH2) | 
2 |  |  |  |  |  |  | DOTA-MG11: DOTA conjugate of the truncated MG analogue [DGlu^1,DesGlu^2–6]MG (MG11) (EAYGWMDF; Synthetic [DGlu1,desGlu2-6]minigastrin: residue 1 is D-Glu, N-terminal DOTA, C-terminal amide (Phe-NH2), Tyr not sulfated) | IC50 (human CCK2R [4]): 0.9 ± 0.3 nM
3 |  |  |  |  | ~5 |  | CCCC[C@@H](C(=O)N[C@@H](CC(=O)O)C(=O)N[C@@H](Cc1cccc2ccccc12)C(N)=O)N(C)C(=O)[C@H](Cc1c[nH]c2ccccc12)NC(=O)CNC(=O)[C@H](Cc1ccc(O)cc1)NC(=O)[C@@H]1CCCN1C(=O)[C@@H](CCC(=O)O)NC(=O)CN1CCN(CC(=O)O)CCN(CC(=O)O)CCN(CC(=O)O)CC1 [[^111In]In-1] [metal not drawn] ({DOTA}-[dE]PYGW[NMeNle]D[1Nal]-NH2) | intact radiopeptide in blood ([6]; 10 min p.i.): 80.0 ± 5.2%; intact radiopeptide in kidneys ([6]; 10 min p.i.): 23.4 ± 4.2%; intact radiopeptide in liver ([6]; 10 min p.i.): 76.0 ± 0.4%; intact radiopeptide in urine ([6]; 10 min p.i.): 21.8 ± 8.1%
4 |  |  |  |  | ~5 |  | CCCC[C@@H](C(=O)N[C@@H](CC(=O)O)C(=O)N[C@@H](Cc1cccc2ccccc12)C(N)=O)N(C)C(=O)[C@H](Cc1c[nH]c2ccccc12)NC(=O)CNC(=O)[C@H](Cc1ccc(O)cc1)NC(=O)[C@@H]1CCCN1C(=O)[C@@H](CCC(=O)O)NC(=O)CN1CCN(CC(=O)O)CCN(CC(=O)O)CCN(CC(=O)O)CC1 [[^177Lu]Lu-1] [metal not drawn] ({DOTA}-[dE]PYGW[NMeNle]D[1Nal]-NH2) | intact radiopeptide in blood ([6]; 60 min p.i., n = 1): 56.6%; intact radiopeptide in kidneys ([6]; 60 min p.i., n = 1): 8.1%; intact radiopeptide in liver ([6]; 60 min p.i., n = 1): 30.8%; intact radiopeptide in urine ([6]; 60 min p.i., n = 1): 23.0%; tumor uptake in A431-CCK2R xenografts ([7]; 20 pmol, 4 h p.i.): 35 % IA/g; uptake in A431-mock xenografts ([7]; 150 pmol, 4 h p.i.): 0.32 ± 0.14 % IA/g; uptake in blood ([7]; 150 pmol, 4 h p.i.): 0.07 ± 0.04 % IA/g; uptake in heart ([7]; 150 pmol, 4 h p.i.): 0.09 ± 0.03 % IA/g; uptake in spleen ([7]; 150 pmol, 4 h p.i.): 0.18 ± 0.05 % IA/g; tumor retention ([7]; A431-CCK2R xenografts, 12 h p.i. relative to 4 h p.i., 20 pmol): > 60%; reduction of tumor uptake in A431-CCK2R xenografts ([7]; injected peptide amount increased to 150 pmol vs 20 pmol, 4 h p.i.): about 50%
5 | 1.74 ± 0.81 | 1.4 ± 0.6 | 12.3 ± 2.4 | -2.03 ± 0.1 |  | 39-53% | CCCC[C@@H](C(=O)N[C@@H](CC(=O)O)C(=O)N[C@@H](Cc1cccc2ccccc12)C(N)=O)N(C)C(=O)[C@H](Cc1c[nH]c2ccccc12)NC(=O)CNC(=O)[C@H](Cc1ccc(O)cc1)NC(=O)[C@@H]1CCCN1C(=O)[C@@H](CCC(=O)O)NC(=O)CN1CCN(CC(=O)O)CCN(CC(=O)O)CCN(CC(=O)O)CC1 [compound 1] ({DOTA}-[dE]PYGW[NMeNle]D[1Nal]-NH2) | 
6 | 1.91 ± 0.49 | 0.6 ± 0.3 | 14.2 ± 2.07 | -1.75 ± 0.1 |  | 50-61% | CCCC[C@@H](C(=O)N[C@@H](CC(=O)O)C(=O)N[C@@H](Cc1cccc2ccccc12)C(N)=O)N(C)C(=O)[C@H](Cc1c[nH]c2ccccc12)NC(=O)CNC(=O)[C@@H]1CCCN1C(=O)[C@H](Cc1ccc(O)cc1)NC(=O)[C@@H](CCC(=O)O)NC(=O)CN1CCN(CC(=O)O)CCN(CC(=O)O)CCN(CC(=O)O)CC1 [compound 2] ({DOTA}-[dE]YPGW[NMeNle]D[1Nal]-NH2) | 
